Measurements taken from patent publication US20260069588A1, “VEPDEGESTRANT FOR USE IN TREATING CANCER” (Arvinas Operation, Inc., priority 2022, published 2026).
Read-outs that look alike come from different tables or passages of the source. Marks after values point to notes of the source that are not given here. Each block holds one compound with its values, some of them ahead of it.

Columns and labels:
[1] = Phase 2 study of Compound A or anastrozole in early ER+/HER2− breast cancer: adverse events; settings: TEAE, Treatment Related per title; Compound A 200 mg N = 23, Anastrozole 1 mg N = 13
[2] = Interconversion (epimerization) Compound A/Compound B in animals; format: in vivo, mouse, rat, dog, and monkey
[3] = human, in vivo
clinical = settings: human, in vivo
ER = target: T1, ER (Homo sapiens, UniProt P03372); experiment: ER degradation in ER+ cell lines (MCF7); format: cell-based; design: endogenous in cells; host or cells: MCF7 (and a panel of unnamed ER+ cell lines)
T1 sequence (P03372 1-595): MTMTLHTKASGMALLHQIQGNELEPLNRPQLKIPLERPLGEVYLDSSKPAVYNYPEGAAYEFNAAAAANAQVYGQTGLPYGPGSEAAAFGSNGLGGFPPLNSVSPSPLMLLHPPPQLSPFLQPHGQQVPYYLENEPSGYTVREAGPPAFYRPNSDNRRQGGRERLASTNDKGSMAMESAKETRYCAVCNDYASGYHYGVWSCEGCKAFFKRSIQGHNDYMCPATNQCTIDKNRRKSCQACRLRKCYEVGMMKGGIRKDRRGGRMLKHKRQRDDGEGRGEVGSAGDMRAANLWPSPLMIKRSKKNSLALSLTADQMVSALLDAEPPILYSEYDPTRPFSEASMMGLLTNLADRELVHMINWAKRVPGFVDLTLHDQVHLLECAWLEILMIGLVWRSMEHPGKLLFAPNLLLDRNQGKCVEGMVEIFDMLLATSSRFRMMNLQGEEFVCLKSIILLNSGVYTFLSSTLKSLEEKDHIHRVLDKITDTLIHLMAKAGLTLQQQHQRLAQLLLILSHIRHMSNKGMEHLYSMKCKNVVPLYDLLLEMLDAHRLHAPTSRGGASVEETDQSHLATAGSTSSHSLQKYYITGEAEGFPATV

hERG channel = hERG channel (Homo sapiens, UniProt Q12809); experiment: hERG channel inhibition; format: biochemical
hERG channel, sequence (Q12809 whole entry): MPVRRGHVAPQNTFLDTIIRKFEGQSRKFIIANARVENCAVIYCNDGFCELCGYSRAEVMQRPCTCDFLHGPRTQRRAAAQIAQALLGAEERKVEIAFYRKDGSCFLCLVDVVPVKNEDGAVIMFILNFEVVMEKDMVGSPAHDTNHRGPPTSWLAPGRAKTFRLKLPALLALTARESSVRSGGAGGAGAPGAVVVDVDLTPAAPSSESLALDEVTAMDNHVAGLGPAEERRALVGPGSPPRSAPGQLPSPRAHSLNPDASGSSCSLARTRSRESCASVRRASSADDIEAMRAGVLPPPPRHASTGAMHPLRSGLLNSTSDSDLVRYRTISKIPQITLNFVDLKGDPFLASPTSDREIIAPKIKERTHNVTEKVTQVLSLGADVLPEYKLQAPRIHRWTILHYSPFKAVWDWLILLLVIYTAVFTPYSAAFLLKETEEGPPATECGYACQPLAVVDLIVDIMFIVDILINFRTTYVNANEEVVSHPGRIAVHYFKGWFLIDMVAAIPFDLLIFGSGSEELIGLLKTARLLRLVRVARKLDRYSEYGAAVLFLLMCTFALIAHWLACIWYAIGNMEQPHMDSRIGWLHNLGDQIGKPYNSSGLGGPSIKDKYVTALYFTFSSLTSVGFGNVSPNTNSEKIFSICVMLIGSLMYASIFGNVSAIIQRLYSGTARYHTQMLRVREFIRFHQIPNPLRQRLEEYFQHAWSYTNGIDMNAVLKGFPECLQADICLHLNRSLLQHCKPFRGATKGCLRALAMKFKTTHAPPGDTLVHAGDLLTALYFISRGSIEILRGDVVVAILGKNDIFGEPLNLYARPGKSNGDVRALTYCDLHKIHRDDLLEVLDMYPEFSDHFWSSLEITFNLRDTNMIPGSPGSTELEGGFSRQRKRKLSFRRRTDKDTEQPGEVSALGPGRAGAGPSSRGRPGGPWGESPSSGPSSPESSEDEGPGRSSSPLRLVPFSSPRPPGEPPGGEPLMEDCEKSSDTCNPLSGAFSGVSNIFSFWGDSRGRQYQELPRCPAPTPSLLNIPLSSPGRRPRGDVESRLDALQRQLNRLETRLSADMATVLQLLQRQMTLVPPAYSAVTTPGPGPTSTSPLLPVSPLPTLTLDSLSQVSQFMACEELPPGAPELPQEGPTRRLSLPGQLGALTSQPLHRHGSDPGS
Method: The pivotal nonclinical safety studies were conducted in the US in accordance with GLP regulations per the US 21 CFR Part 58. These include the cardiovascular safety pharmacology study in dogs, the pivotal 28-day and 3-month repeat-dose toxicology studies in rats and dogs, and an in vitro phototoxicity assay. The bacterial reverse mutation assay, in vitro micronucleus assay, and 2 in vitro hERG studies were conducted in the UK in accordance with the UK Good Laboratory Practice Monitoring Authority, MHRA: Good Laboratory Practice Regulations 1999, Statutory Instrument 1999 No. 3106 as amended by the Good Laboratory Practice (Codification Amendments Etc.) Regulations, 2004, Statutory Instrument 2004, No. 994; and the OECD GLP and OECD Principles on Good Laboratory Practice ENV/MC/CHEM (98) 17 (Revised in 1997, Issued January 1998).accordance with the OECD Principles of Good Laboratory Practice and as accepted by Regulatory Authorities throughout the European Union, United States of America (FDA), Japan (MHLW), and other countries that are signatories to the OECD Mutual Acceptance of Data Agreement.

T47D cells = experiment: Live-cell imaging proliferation, T47D; format: cell-based; settings: Homo sapiens, 144 h, up to 6 days
From the text: (§1) Full growth of the cells over this time period is shown by extent of cell confluence with dimethyl sulfoxide (DMSO).

MCF7 cells = experiment: Live-cell imaging proliferation, MCF7; format: cell-based; settings: Homo sapiens, 144 h; MCF7, up to 6 days
From the text: as §1

SMILES: CC(C)(C#N)c1cc(Cn2cncn2)cc(C(C)(C)C#N)c1 [Anastrozole]
- Anemia [1]: 1 (7.7) n (%)
- Arthralgia [1]: 1 (7.7) n (%)
- Asphyxia [1]: 0 n (%)
- Asthenia [1]: 0 n (%)
- Blood and lymphatic system disorders [1]: 1 (7.7) n (%)
- Blood uric acid increased [1]: 0 n (%)
- Breast pain [1]: 0 n (%)
- Cardiac disorders [1]: 0 n (%)
- Constipation [1]: 1 (7.7) n (%)
- Diarrhea [1]: 0 n (%)
- Dyspepsia [1]: 1 (7.7) n (%)
- Fatigue [1]: 0 n (%)
- Gastrointestinal disorders [1]: 1 (7.7) n (%)
- General disorders and administration site conditions [1]: 0 n (%)
- Hematocrit decreased [1]: 1 (7.7) n (%)
- Heparin-induced thrombocytopenia [1]: 0 n (%)
- Hepatobiliary disorders [1]: 0 n (%)
- Hot flush [1]: 0 n (%)
- Hyperbilirubinemia [1]: 0 n (%)
- Hypercalcemia [1]: 0 n (%)
- Hyperglycemia [1]: 0 n (%)
- Hypernatremia [1]: 0 n (%)
- Hypertransaminasemia [1]: 0 n (%)
- Hypokalemia [1]: 0 n (%)
- Hyponatremia [1]: 0 n (%)
- Injury, poisoning and procedural complications [1]: 0 n (%)
- Insomnia [1]: 0 n (%)
- Investigations [1]: 1 (7.7) n (%)
- Lymphopenia [1]: 1 (7.7) n (%)
- Metabolism and nutrition disorders [1]: 0 n (%)
- Musculoskeletal and connective tissue disorders [1]: 1 (7.7) n (%)
- Myalgia [1]: 1 (7.7) n (%)
- Nervous system disorders [1]: 0 n (%)
- Odynophagia [1]: 0 n (%)
- Procedural pain [1]: 0 n (%)
- Pruritus [1]: 0 n (%)
- Psychiatric disorders [1]: 0 n (%)
- Pyrexia [1]: 0 n (%)
- Reproductive system and breast disorders [1]: 0 n (%)
- Respiratory, thoracic and mediastinal disorders [1]: 0 n (%)
- Sinus bradycardia [1]: 0 n (%)
- Skin and subcutaneous tissue disorders [1]: 0 n (%)
- Somnolence [1]: 0 n (%)
- Stomatitis [1]: 0 n (%)
- Tension [1]: 0 n (%)
- Vascular disorders [1]: 0 n (%)
- With Any Adverse Event [1]: 2 (15.4) n (%)

- extent of epimerization ([2]; monkey): negligible
- exposure of Compound B compared to Compound A ([2]; preclinical data): < 26%
- Rac (AUCtau) ([3]; 30 mg): 7.1
- Tmax ([3]; 30 mg): 6.0 h
- Rac (AUCtau) ([3]; 60 mg): 7.3
- Rac (AUCtau) ([3]; 100 mg): 6.1 ^f
- Tmax ([3]; 100 mg): 6.0 h
- Rac (AUCtau) ([3]; 120 mg): 5.7
- Tmax ([3]; 120 mg): 6.0 h
- Rac (AUCtau) ([3]; 180 mg): 6.8
- Tmax ([3]; 180 mg): 5.9 h
- Rac (AUCtau) ([3]; 200 mg): 5.1
- Tmax ([3]; 200 mg): 5.9 h
- MR AUCtau ([3]; 250 mg): 0.36
- Tmax ([3]; 250 mg): 4.1 h
- Rac (AUCtau) ([3]; 360 mg): 5.9
- Tmax ([3]; 360 mg): 6.0 h
- Rac (AUCtau) ([3]; 500 mg): 5.9
- Tmax ([3]; 500 mg): 6.0 h
- Rac (AUCtau) ([3]; 700 mg): 3.7 ^g
- Tmax ([3]; 700 mg): 7.8 ^g h
- half-life (clinical; 30 mg): 104 h
- Tmax (clinical; 30 mg): 8 h
- half-life (clinical; 60 mg): 110 h
- half-life (clinical; 100 mg): 99 h
- Tmax (clinical; 100 mg): 7.8 h
- half-life (clinical; 120 mg): 93 h
- Tmax (clinical; 120 mg): 7.8 h
- half-life (clinical; 180 mg): 92 h
- Tmax (clinical; 180 mg): 7.8 h
- half-life (clinical; 200 mg): 85 h
- Tmax (clinical; 200 mg): 7.8 h
- AUC(0-t) (clinical; 250 mg, AUCtau (AUC0-8)): 179 ng·h/mL
- AUC(0-t) (clinical; 250 mg, AUCtau (AUC0-12)): 7390 ng·h/mL
- Tmax (clinical; 250 mg): 7.8 h
- half-life (clinical; 360 mg): 96 h
- Tmax (clinical; 360 mg): 7.8 h
- half-life (clinical; 500 mg): 96 h
- Tmax (clinical; 500 mg): 7.8 h
- half-life (clinical; 700 mg): 52 h
- Tmax (clinical; 700 mg): 7.8 h
- Tmax (clinical): 7.8 h
- ER degradation (ER): does not degrade the ER
SMILES: O=C1CC[C@@H](N2Cc3cc(N4CCN(CC5CCN(c6ccc([C@@H]7c8ccc(O)cc8CC[C@@H]7c7ccccc7)cc6)CC5)CC4)ccc3C2=O)C(=O)N1 [Compound B]
- IC50 (hERG channel): > 20000 nM
- unbound Cmax margin to hERG IC50 (hERG channel; recommended Phase 3 dose of 200 mg): ~499 ×

- GI50 (T47D cells): 0.8 nM
- GI50 (MCF7 cells): 0.4 nM
SMILES: C[C@]12CC[C@@H]3c4ccc(O)cc4C[C@@H](CCCCCCCCC[S+]([O-])CCCC(F)(F)C(F)(F)F)[C@H]3[C@@H]1CC[C@@H]2O (stereo partly shown) [fulvestrant, reference compound]
